Measurements from patent US9468661B2, “Pyrrolidine derivatives and their use as complement pathway modulators” (priority 2012, dated 2016).
Read-outs that look alike come from different tables or passages of the source.

Biological target: human factor D (Homo sapiens (Human), UniProt P00746)
Test: biochemical
Assay type: biochemical
Details: recombinant human factor D 10 nM, substrate Z-Lys-thiobenzyl, fluorescence
Procedure: Human Complement Factor D Assay: Method 1
Recombinant human factor D (expressed in E. coli and purified using standard methods) at 10 nM concentration is incubated with test compound at various concentrations for 1 hour at room temperature in 0.1 M Hepes buffer, pH 7.5, containing 1 mM MgCl2, 1 M NaCl and 0.05% CHAPS. A synthetic substrate Z-Lys-thiobenzyl and 2,4-dinitrobenzenesulfonyl-fluoresceine are added to final concentrations of 200 μM and 25 μM, respectively. The increase in fluorescence is recorded at excitation of 485 nm and emission at 535 nm in a microplate spectrofluorimeter. IC50 values are calculated from percentage of inhibition of complement factor D-activity as a function of test compound concentration.

[1] = IC50, Factor D inhibition data using Method 1
[2] = Factor D inhibition data using Method 1, read-out: IC50

Chain of human factor D (P00746 26-253): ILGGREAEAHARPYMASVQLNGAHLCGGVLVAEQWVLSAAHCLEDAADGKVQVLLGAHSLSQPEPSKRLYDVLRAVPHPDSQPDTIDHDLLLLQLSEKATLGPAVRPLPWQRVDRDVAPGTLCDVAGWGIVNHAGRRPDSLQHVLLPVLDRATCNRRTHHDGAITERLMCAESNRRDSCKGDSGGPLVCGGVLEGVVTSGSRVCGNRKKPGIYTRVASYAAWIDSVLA

Compound | IC50 [1] | IC50 [2]
CC(=O)c1nn(CC(=O)N2[C@@H]3C[C@@H]3C[C@H]2C(=O)NCC2C(C)C2(Cl)Cl)c2ccc(OCc3ncccn3)cc12 (single isomer, unassigned; dia 2) [Example 76, (1R,3S,5R)-2-{2-[3-Acetyl-5-(pyrimidin-2-ylmethoxy)-indazol-1-yl]-acetyl}-2-aza-bicyclo[3.1.0] hexane-3-carboxylic acid ((1R,3R) or (1S,3S)-2,2-dichloro-3-methyl-cyclopropylmethyl)-amide-Dia 2] | 3 nM | 
CC1C(CNC(=O)[C@@H]2C[C@H]3C[C@H]3N2C(=O)Cn2nc(C(N)=O)c3ccccc32)C1(Cl)Cl (single isomer, unassigned; dia 2) [Example 78, 1-(2-{(1R,3S,5R)-3-[((1R,3S) or (1S,3R)-2,2-Dichloro-3-methyl-cyclopropylmethyl)-carbamoyl]-2-aza-bicyclo[3.1.0]hex-2-yl}-2-oxo-ethyl)-1H-indazole-3-carboxylic acid amide-Dia 2] | 62 nM | 
CC1C(CNC(=O)[C@@H]2C[C@H]3C[C@H]3N2C(=O)Cn2nc(C(N)=O)c3ccncc32)C1(Cl)Cl (single isomer, unassigned; dia 2) [Example 80, 1-(2-{(1R,3S,5R)-3-[((1R,3S) or (1S,3R)-2,2-Dichloro-3-methyl-cyclopropylmethyl)-carbamoyl]-2-aza-bicyclo[3.1.0]hex-2-yl}-2-oxo-ethyl)-1H-pyrazolo[3,4-c]pyridine-3-carboxylic acid amide-Dia 2] | 98 nM | 
CC1C(CNC(=O)[C@@H]2C[C@H]3C[C@H]3N2C(=O)Cn2nc(C(N)=O)c3ccncc32)C1(Cl)Cl (single isomer, unassigned; dia 2) [Example 82, 1-(2-{(1R,3S,5R)-3-[((1R,3R) or (1S,3S)-2,2-Dichloro-3-methyl-cyclopropylmethyl)-carbamoyl]-2-aza-bicyclo[3.1.0]hex-2-yl}-2-oxo-ethyl)-1H-pyrazolo[3,4-c]pyridine-3-carboxylic acid amide-Dia 2] | 85 nM | 
CC1CCCC1CNC(=O)[C@@H]1C[C@H]2C[C@H]2N1C(=O)Cn1nc(C(N)=O)c2ccncc21 (single isomer, unassigned; dia 2) [Example 86] |  | 610 nM
CC1CCC(CNC(=O)[C@@H]2C[C@H]3C[C@H]3N2C(=O)Cn2nc(C(N)=O)c3ccccc32)C1 (single isomer, unassigned; dia 2) [Example 90] | 53 nM | 
CC(=O)c1nn(CC(=O)N2[C@@H]3C[C@@H]3C[C@H]2C(=O)NCC2C(C)C2(Cl)Cl)c2ccc(OCc3ncccn3)cc12 (single isomer, unassigned; dia 2) [Example 109, (1R,3S,5R)-2-{2-[3-Acetyl-5-(pyrimidin-2-ylmethoxy)-indazol-1-yl]-acetyl}-2-aza-bicyclo[3.1.0] hexane-3-carboxylic acid ((1R,3S) or (1S,3R)-2,2-dichloro-3-methyl-cyclopropylmethyl)-amide-Dia 2] | 49 nM | 
CC1CCCC(CNC(=O)[C@@H]2C[C@H]3C[C@H]3N2C(=O)Cn2nc(C(N)=O)c3ccncc32)C1 (single isomer, unassigned; dia 2) [Example 116] |  | 445 nM
CC(=O)c1nn(CC(=O)N2[C@@H]3C[C@@H]3C[C@H]2C(=O)NCC2CCCC(C)C2)c2cnccc12 (single isomer, unassigned; dia 2) [Example 120] |  | 70 nM
CC(=O)c1nn(CC(=O)N2[C@@H]3C[C@@H]3C[C@H]2C(=O)NC(C)C2CC2(Cl)Cl)c2ccc(OCc3ncccn3)cc12 (single isomer, unassigned; dia 3) [Example 34] | 513 nM | 
NC(=O)c1nn(CC(=O)N2[C@@H]3C[C@@H]3C[C@H]2C(=O)NC(CO)C2CC2(Cl)Cl)c2ccccc12 (single isomer, unassigned; dia 3) [Example 50] | 7300 nM | 
CC1CCCC1CNC(=O)[C@@H]1C[C@H]2C[C@H]2N1C(=O)Cn1nc(C(N)=O)c2ccncc21 (single isomer, unassigned; dia 3) [Example 87] |  | 459 nM
CC1CCCC(CNC(=O)[C@@H]2C[C@H]3C[C@H]3N2C(=O)Cn2nc(C(N)=O)c3ccncc32)C1 (single isomer, unassigned; dia 3) [Example 117] |  | 307 nM
CC(=O)c1nn(CC(=O)N2[C@@H]3C[C@@H]3C[C@H]2C(=O)NC(C)C2CC2(Cl)Cl)c2ccc(OCc3ncccn3)cc12 (single isomer, unassigned; dia 4) [Example 35] | 324 nM | 
NC(=O)c1nn(CC(=O)N2[C@@H]3C[C@@H]3C[C@H]2C(=O)NC(CO)C2CC2(Cl)Cl)c2ccccc12 (single isomer, unassigned; dia 4) [Example 51] | 246 nM | 
CC1CCCC1CNC(=O)[C@@H]1C[C@H]2C[C@H]2N1C(=O)Cn1nc(C(N)=O)c2ccncc21 (single isomer, unassigned; dia 4) [Example 88] |  | 781 nM
CC1CCC(CNC(=O)[C@@H]2C[C@H]3C[C@H]3N2C(=O)Cn2nc(C(N)=O)c3ccccc32)C1 (single isomer, unassigned; dia 4) [Example 91] | 46 nM | 
CC1CCCC(CNC(=O)[C@@H]2C[C@H]3C[C@H]3N2C(=O)Cn2nc(C(N)=O)c3ccncc32)C1 (single isomer, unassigned; dia 4) [Example 118] |  | 159 nM
CC(=O)c1nn(CC(=O)N2[C@@H]3C[C@@H]3C[C@H]2C(=O)NCC2CC2)c2ncccc12 [Example 1, (1R,3S,5R)-2-[2-(3-Acetyl-pyrazolo[3,4-b]pyridin-1-yl)-acetyl]-2-aza-bicyclo[3.1.0]hexane-3-carboxylic acid cyclopropylmethyl-amide] |  | 4790 nM
CC(=O)c1nn(CC(=O)N2[C@@H]3C[C@@H]3C[C@H]2C(=O)NCC2C(C)(C)C2(C)C)c2ncccc12 [Example 2, (1R,3S,5R)-2-[2-(3-Acetyl-pyrazolo[3,4-b]pyridin-1-yl)-acetyl]-2-aza-bicyclo[3.1.0] hexane-3-carboxylic acid (2,2,3,3-tetramethyl-cyclopropylmethyl)-amide] |  | 1850 nM
CC(=O)c1nn(CC(=O)N2[C@@H]3C[C@@H]3C[C@H]2C(=O)NCC2CCC3(CCC3)CC2)c2cnccc12 [Example 3, (1R,3S,5R)-2-[2-(3-Acetyl-pyrazolo[3,4-c]pyridin-1-yl)-acetyl]-2-aza-bicyclo[3.1.0] hexane-3-carboxylic acid (spiro[3.5]non-7-ylmethyl)-amide] |  | 1350 nM
CC(=O)c1nn(CC(=O)N2[C@@H]3C[C@@H]3C[C@H]2C(=O)NCC2CCC(C)(C)CC2)c2cnccc12 [Example 4, (1R,3S,5R)-2-[2-(3-Acetyl-pyrazolo[3,4-c]pyridin-1-yl)-acetyl]-2-aza-bicyclo[3.1.0] hexane-3-carboxylic acid (4,4-dimethyl-cyclohexylmethyl)-amide] |  | 955 nM
CC(=O)c1nn(CC(=O)N2[C@@H]3C[C@@H]3C[C@H]2C(=O)N[C@@H](C)C2CCCCC2)c2cnccc12 [Example 5, (1R,3S,5R)-2-[2-(3-Acetyl-pyrazolo[3,4-c]pyridin-1-yl)-acetyl]-2-aza-bicyclo[3.1.0] hexane-3-carboxylic acid ((S)-1-cyclohexyl-ethyl)-amide] |  | 5250 nM
CC(=O)c1nn(CC(=O)N2[C@@H]3C[C@@H]3C[C@H]2C(=O)N[C@H](C)C2CCCCC2)c2cnccc12 [Example 6, (1R,3S,5R)-2-[2-(3-Acetyl-pyrazolo[3,4-c]pyridin-1-yl)-acetyl]-2-aza-bicyclo[3.1.0] hexane-3-carboxylic acid ((R)-1-cyclohexyl-ethyl)-amide] |  | 71 nM
